Consider four molecules from patent US6096779A, “Amorphous piretanide, piretanide polymorphs, process for their preparation and their use” (Hoechst Pharmaceuticals & Chemicals K.K., priority 1995, dated 2000).

Series [1] can be described thus: Solubility in buffers at various pH values by dissolution tester, absorbance at 275 nm, 37° C. Type of series: physicochemical. Conditions: for solubility in a buffer at a pH value of 1: pH 1, potassium chloride-hydrochloric acid buffer. The method, then: The amorphous piretanide obtained as described in Example 1 was analyzed for solubility in a buffer at various pH values by means of a dissolution tester, using piretanide form A as a control.
A sufficient amount of the amorphous piretanide to ensure supersaturation was added to 500 ml each of the buffers at various pH values as indicated below, and about 10 ml of a solution was sampled at appropriate intervals and filtered using a 0.45 μm filter. About 5 ml of the initial solution was discarded and the remainder was used as a sample solution and, if required, diluted with the same buffer. Solubility was determined by absorbance at 275 nm.
Buffer: pH 1 Potassium chloride-hydrochloric acid system
pH 3 Sodium chloride-glycine-hydrochloric acid system
pH 6.8 JP XII, second fluid
Solution temperature: 37° C.
The piretanide polymorph obtained as described in Example 6 was analyzed for solubility in a buffer at various pH values by means of a dissolution tester, using piretanide form A as a control.
A sufficient amount of the amorphous piretanide to ensure supersaturation was added to 500 ml each of the buffers at various pH values as indicated below, and about 10 ml of a solution was sampled at appropriate intervals and filtered using a 0.45 μm filter. About 5 ml of the initial solution was discarded and the remainder was used as a sample solution and, if required, diluted with the same buffer, if necessary, solubility was determined by absorbance at 275 nm.

Test in series [2]: as above
Type of series: physicochemical. Conditions: pH 1, 37° C., vs piretanide form B.

For series [3] the following is noted: cited from earlier work; for solubility in a buffer at a pH value of 3: pH 3, 37° C.; for solubility at a pH value of 6.8: pH 6.8, 37° C.
The mark [4] stands for this setting: pH 3, sodium chloride-glycine-hydrochloric acid buffer.

Values after ≈ are worked out from the molar mass of the structure shown. Read-outs that look alike come from different tables or passages of the source.

Regarding `NS(=O)(=O)c1cc(C(=O)O)cc(N2CCCC2)c1Oc1ccccc1` [piretanide polymorph, 4-phenoxy-3-(1-pyrrolidinyl)-5-sulfamoyl-benzoicacid], the solubility amounted to 9270 µg/mL (≈ 25.6 mM) in series [1] (jp xii second fluid, pH 6.8, pH 6.8, JP XII second fluid, read-out: solubility in a buffer at a pH value of 6.8) and 67 µg/mL (≈ 0.185 mM) in series [1] (nacl-glycine-hcl buffer, pH 3, aqueous buffer, pH 3, sodium chloride-glycine-hydrochloric acid buffer, read-out: solubility in a buffer at a pH value of 3). The “solubility in a buffer at a pH value of 1” value (“solubility … of 1” below) in series [1] came out at 12.2 mg/100 ml. Also, the “solubility compared with piretanide form B, pH 1 (in words)” value in series [2] is on record as “approximately similar solubility to that of piretanide form B”.

In the case of `NS(=O)(=O)c1cc(C(=O)O)cc(N2CCCC2)c1Oc1ccccc1` [amorphous piretanide, 4-phenoxy-3-(1-pyrrolidinyl)-5-sulfamoyl-benzoicacid], the “solubility … of 1” value in series [1] came out at 15.2 mg/100 ml. Further, the “solubility in a buffer at a pH value of 3” value (“solubility … of 3” for short) in series [1] (setting [4]) turned out to be 6.5 mg/100 ml. Moreover, the “solubility in a buffer at a pH value of 6.8” value in series [1] (pH 6.8, JP XII second fluid) is reported as 901.3 mg/100 ml.

Regarding `NS(=O)(=O)c1cc(C(=O)O)cc(N2CCCC2)c1Oc1ccccc1` [piretanide form A, 4-phenoxy-3-(1-pyrrolidinyl)-5-sulfamoyl-benzoicacid], the solubility in series [1] (jp xii second fluid, pH 6.8, pH 6.8, JP XII second fluid, read-out: solubility in a buffer at a pH value of 6.8 (control, unit as printed)) is 1940 µg/mL (≈ 5.35 mM). For the same molecule, the “solubility … of 1” value in series [1] is on record as 7.5 mg/100 ml; in series [3] (pH 1, 37° C., background), 7.5 mg/100 ml. The “solubility … of 3” value in series [1] (setting [4]) and in series [3] (background) was 4.2 mg/100 ml in each case. Further, the “solubility at a pH value of 6.8” value in series [3] (background) is recorded as 193.8 mg/100 ml. The water solubility in series [3] (water, 20° C.) is reported as 7.9 mg/100 ml.

Regarding `NS(=O)(=O)c1cc(C(=O)O)cc(N2CCCC2)c1Oc1ccccc1` [piretanide form B, 4-phenoxy-3-(1-pyrrolidinyl)-5-sulfamoyl-benzoicacid], in series [3] (background), the “solubility … of 3” value is given as 6.4 mg/100 ml and the “solubility at a pH value of 6.8” value is reported as 195.4 mg/100 ml.
